Laboratory results taken from article PMC11603412, “Anti-hepatocellular carcinoma activities of novel hydrazone derivatives via downregulation of interleukin-6” (RSC Advances, 2024).
“Also recorded” adds a separate entry of the source.

Legend:
[1] = system: HepG2 cells; test: Wound healing (cell migration) assay; assay type: cell-based, human; settings: for cell migration of HepG2 cells: 24 h, versus untreated control; for antimigration effect compared to sorafenib: HepG2, 24 h, quantified relative migration
Protocol: The wound healing assay was used to investigate the anti-cell migration/antiproliferation effects of synthesized hydrazone derivatives on the HepG2 cell line. In DMEM medium supplemented with 10% fetal bovine serum (FBS), 100 U per mL penicillin, and […] streptomycin, cells were cultured at 37 °C and 5% CO2. After reaching 80% density, the monolayer cells were scratched using a sterile tip and then washed with phosphate buffered saline, pH 7.4. Different hydrazone derivatives were applied to cells, which were then incubated for 24 h at 37 °C and 5% CO2. Finally, an Olympus microscope (Olympus Europa, Hamburg, Germany) was used to take pictures of the wound areas at 0 and 24 h. The relative cell migration was calculated using the following equation:Relative migration = (width0h − width24h)/width0h

[2] = system: HepG2 cell line; test: MTT cytotoxicity assay, HepG2; assay type: cell-based, human; settings: for IC50: Homo sapiens, HepG2, 24 h; for cytotoxic action against HepG2: MTT assay, in words
Protocol: (§1) The HepG2 cell line was obtained from ATCC (Rockville, MD). Liver mesenchymal stem cells were harvested from liver biopsy according to previously published protocols.[34] Cells were grown in DMEM media with 10% fetal bovine serum (FBS), 100 U per mL penicillin, and […] streptomycin at 37 °C, 5% CO2. The MTT assay kit, which relies on succinate dehydrogenase in living cells' mitochondria to convert the 3-(4,5-dimethylthiazol-2-yl)-2,5-diphenyltetrazolium bromide (MTT) dye to violet formazan crystals, was used to calculate the vitality of individual cells. 6000 cells per well were seeded in the 96-well plate containing, which were then incubated for 24 h. Different concentrations of drug were dissolved in DMEM and then added to the wells to replace the culture medium. The medium was discarded after incubation for 24 h under the same conditions, and 100 μL of MTT (2 mg mL^−1) were added. After 3 h of incubation at 37 °C, the generated formazan crystals generated were dissolved in 50 μL of DMSO. The optical density was then measured using a Stat Fax ELISA plate reader (Romer Labs, Getzersdorf, Austria) at 570 nm with a reference wavelength of 630 nm after incubating the plate at 37 °C for 15 min. As a positive control, the tyrosine kinase inhibitor sorafenib (Bayer, Germany) was employed. DMSO was used as a solvent and its final concentration was less than 0.2%. SI and IC50 were calculated. Triplicates of each in vitro test were performed.[33]

[3] = system: Liver mesenchymal stem cells; test: MTT cytotoxicity assay, liver mesenchymal stem cells (normal cell line); assay type: cell-based; settings: 24 h
Protocol: as §1

[4] = system: HepG2 cells; test: Active caspase 3 apoptosis flow cytometry; assay type: cell-based, human; settings: for percentage of apoptotic cells compared to the control group: HepG2, active caspase 3, in words; for percentage of apoptotic cells: HepG2, active caspase 3, text value
Protocol: (§2) Cells were harvested, aliquoted up to 1 × 10^6 cells/100 μL in FACS tubes, washed twice with 2 mL of PBS, centrifuged at 300 × g for five minutes, and the buffer was decanted. Reconstituted cells in 100 μL of staining buffer for flow cytometry. HepG2 cells were stained with propidium iodide according to the technique offered via the kit and subsequently performed on the cytometer. The distribution of the cell cycles was estimated and analyzed using a FACScan TM device (BD, Franklin Lakes, NJ). Furthermore, the caspase-3 apoptotic marker levels were investigated by flow cytometry. During the flow cytometry assay, we investigated a population of HepG2 cells to obtain enough cells for statistically significant detection.
FITC active caspase-3 apoptosis kit (BD Biosciences, Franklin Lakes, NJ, USA) was used for detection of active caspase 3 followed by flow cytometry analysis according to the instructions of the kit manufacturer.

[5] = system: IL-6; test: IL-6 gene expression (RT-PCR); assay type: cell-based; settings: normalised to β-actin, versus control group
Protocol: After two rounds of PBS washing, total RNA was extracted using the TRIzol Reagent, and cDNA synthesis was performed using the high-capacity cDNA reverse transcription kit in accordance with the manufacturer's instructions. The qPCR reaction mixture contained so-fast EvaGreen supermix (10 μL), cDNA (2 μL), invitrogen RT-PCR grade water (6 μL), and the primer pair (500 nM; forward primer 5′-CAAATTCGGTACATCCTC-3′, reverse primer 5′-CTGGCTTGTTCCTCACTA-3′). The amplification started with heating 10 min at 95 °C, followed by 40 cycles of 15 s at 95 °C, 20 s at 55 °C and 30 s at 72 °C. The amplification data was then analyzed as previously described previously with normalization to β-actin.[35]

[6] = system: Cytochrome C; test: Cytochrome C sandwich ELISA; assay type: cell-based; settings: versus control group
Protocol: Cytochrome C was quantified using a sandwich ELISA kit (Abcam, Cambridge, UK) according to the manufacturer's procedures. After the addition of the TMB substrate and the development of the color, the optical density was measured using a Stat fax microplate reader, USA, at 450 nm.

[7] = system: HepG2 cells; test: Propidium iodide cell cycle flow cytometry; assay type: cell-based, human
Protocol: as §2

Row | SMILES | cell migration of HepG2 cells [1] | IC50 [2] [µM] | cytotoxic action against HepG2 [2] | IC50 [3] [µM] | percentage of apoptotic cells compared to the control group [4] | antimigration effect compared to sorafenib [1] | IL-6 mRNA expression [5] | cytochrome C concentration [6] | percentage of apoptotic cells [4] [%] | cells in G2/M phase [7] [%] | cells in S-phase [7] [%] | cells in the G0/G1 phase [7] [%]
1 | NN=C(C1CC1)C1CC1 [Compound 2, dicyclopropylmethylene hydrazone] | substantially reduced | 94.7 | excellent cytotoxic action | > 100 | increased significantly | – | – | – | – | – | – | –
2 | COc1ccc(/C=N\N=C(C2CC2)C2CC2)cc1 [Compound 3a] | – | 48.2 | – | > 100 | – | – | – | – | – | – | – | –
3 | O=[N+]([O-])c1ccc(/C=N\N=C(C2CC2)C2CC2)cc1 [Compound 3b] | – | > 100 | – | 90.2 | – | – | – | – | – | – | – | –
4 | O=C1Nc2ccccc2/C1=N/N=C(C1CC1)C1CC1 [Compound 4, 3-(dicyclopropylmethylene)hydrazone indolin-2-one] | substantially reduced | 53.7 | excellent cytotoxic action | 100 | increased significantly | – | – | – | – | – | – | –
5 | Oc1ccccc1/C=N/N=C/c1ccccc1O [Compound 5] | – | 75.8 | – | > 100 | – | – | – | – | – | – | – | –
6 | NC1=NNC2(C(=O)Nc3ccccc32)N1N=C(C1CC1)C1CC1 (centres unmarked) [Compound 7a] | – | > 100 | – | > 100 | – | – | – | – | – | – | – | –
7 | O=C1Nc2ccccc2C12NN=C(c1ccccc1)N2N=C(C1CC1)C1CC1 (centres unmarked) [Compound 7b] | – | > 100 | – | 100 | – | – | – | – | – | – | – | –
8 | NC1=NNC(c2ccccc2O)N1/N=C\c1ccccc1O (centres unmarked) [Compound 8a] | substantially reduced | 62.2 | excellent cytotoxic action | 100 | increased significantly | – | – | – | – | – | – | –
9 | Oc1ccccc1/C=N\N1C(c2ccccc2)=NNC1c1ccccc1O (centres unmarked) [Compound 8b] | – | > 100 | – | 75.5 | – | – | – | – | – | – | – | –
10 | Cc1nc2ccccc2c(=O)n1N=C(C1CC1)C1CC1 [Compound 11, 3-((dicyclopropylmethylene)amino)-2-methylquinazolin-4(3H)-one] | – | > 100 | – | > 100 | – | – | – | – | – | – | – | –
11 | O=C1C(=O)c2ccccc2C2=C1NNC(C1CC1)(C1CC1)O2 [Compound 13] | substantially reduced | 61.4 | excellent cytotoxic action | 85.2 | increased significantly | significant antimigration effect | – | – | – | – | – | –
12 | O=C1CCC(=O)N1N=C(C1CC1)C1CC1 [Compound 16] | substantially reduced | 23.6 | excellent cytotoxic action | 76.5 | increased significantly | significant antimigration effect | significant (P < 0.001) decrease | significant increase; also recorded: increase in cytochrome C greater than sorafenib | 80 | 1.2 | 4.5 | –
13 | NC1=CC(=O)NNC1(C1CC1)C1CC1 [Compound 18] | substantially reduced | 89.5 | excellent cytotoxic action | 100 | increased significantly | – | – | – | – | – | – | –
14 | Cc1nc2ccccc2c(=O)n1NC(=S)N=C(C1CC1)C1CC1 [Compound 20] | substantially reduced | 48.6 | excellent cytotoxic action | 61.5 | increased significantly | significant antimigration effect | – | – | – | – | – | –
15 | CNC(=O)c1cc(Oc2ccc(NC(=O)Nc3ccc(Cl)c(C(F)(F)F)c3)cc2)ccn1 [Sorafenib, reference compound] | substantially reduced | 25.6 | excellent cytotoxic action | 100 | increased significantly | – | significant (P < 0.001) decrease | significant increase | 75 | 10.68 | 4.17 | 74.93
